Consider one compound from US20240058283A1, “THE MODE OF ACTION OF N-MeDCPA ON TRPC CHANNELS” (West Virginia University Board of Governors on Behalf of …, priority 2022, published 2024).

The assay concerns the target T1, TRPC6 (Homo sapiens, UniProt Q9Y210).
T1 construct: expressed in transfected cells
T1 sequence (Q9Y210 1-931): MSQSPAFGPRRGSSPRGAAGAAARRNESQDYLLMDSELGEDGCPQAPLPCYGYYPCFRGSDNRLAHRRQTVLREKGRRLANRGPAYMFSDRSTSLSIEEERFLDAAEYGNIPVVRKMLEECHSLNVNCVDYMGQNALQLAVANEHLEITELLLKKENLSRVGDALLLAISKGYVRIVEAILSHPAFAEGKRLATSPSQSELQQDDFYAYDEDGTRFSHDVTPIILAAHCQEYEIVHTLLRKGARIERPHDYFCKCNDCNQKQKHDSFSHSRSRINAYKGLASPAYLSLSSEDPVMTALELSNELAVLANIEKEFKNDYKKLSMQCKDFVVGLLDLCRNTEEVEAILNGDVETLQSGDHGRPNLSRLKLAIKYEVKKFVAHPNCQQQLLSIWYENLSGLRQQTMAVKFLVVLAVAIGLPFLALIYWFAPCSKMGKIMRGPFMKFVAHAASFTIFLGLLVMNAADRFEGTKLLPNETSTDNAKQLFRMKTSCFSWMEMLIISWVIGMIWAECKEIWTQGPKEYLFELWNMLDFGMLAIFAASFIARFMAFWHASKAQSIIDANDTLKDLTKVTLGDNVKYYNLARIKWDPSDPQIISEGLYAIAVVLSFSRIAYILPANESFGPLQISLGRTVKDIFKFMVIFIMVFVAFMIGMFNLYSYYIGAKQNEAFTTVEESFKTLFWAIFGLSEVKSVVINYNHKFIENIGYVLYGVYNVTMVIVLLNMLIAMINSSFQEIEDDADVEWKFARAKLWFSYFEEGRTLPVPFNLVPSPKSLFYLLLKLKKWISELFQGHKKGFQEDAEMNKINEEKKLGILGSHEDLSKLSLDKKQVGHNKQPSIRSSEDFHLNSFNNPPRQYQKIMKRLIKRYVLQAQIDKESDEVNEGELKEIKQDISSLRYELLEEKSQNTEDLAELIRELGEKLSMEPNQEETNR
Briefly: OAG-induced Ca2+ entry in Fura2-loaded HEK293 cells expressing TRPC6. To be noted: ELP-004 0 to 1 mM for 10 minutes before OAG, FIG. 1D, read-out: IC50, inhibition of OAG-induced Ca2+ entry. In kind it is cell-based. The procedure: Inhibition of DAG-mediated TRPC activation. To determine if ELP-004 (N-MeDCPA) inhibits DAG-induced TRPC activation, HEK293 cells expressing TRPC3, TRPC6 or TRPC7 were loaded with Fura2 and incubated with ELP-004 (0 to 1 mM) for 10 minutes prior to challenging with 1-Oleoyl-2-acetyl-sn-glycerol (OAG), a membrane permeable form of diacylglycerol.
Cell Culture—HEK293 cells were grown in DMEM with 4.5 g/L glucose supplemented with 10% FBS and 1% Gentamycin (Full DMEM media; Thermo-Fisher Scientific, Waltham, MA) at 37° C. and 5% CO2. […]
TRPC activity assay—Cells grown on glass coverslips were incubated in a cation-safe buffer (107 mM NaCl, 7.2 mM KCl, 1.2 mM MgCl2, 11.5 mM Glucose, 20 mM HEPES-NaOH, 1 mM CaCl2), pH 7.2) and loaded with Fura2-acetoxymethylester (Fura2-AM; 2 μM) for 30 min at 24° C. as previously described^10,11. […] Ca^2+/Sr^2+ measurements were taken using a Leica DMI 6000B fluorescence microscope controlled by Slidebook software (Intelligent Imaging Innovations, Denver, CO). Fluorescence emission at 505 nm was monitored in response to excitation at alternating 340 nm and 380 nm wavelengths at a frequency of 0.67 Hz; intracellular Ca^2+ measurements are shown at 340/380 nm ratios obtained from groups of 35-45 single cells.

In the case of `CCC(=O)N(C)c1ccc(Cl)c(Cl)c1` [ELP-004, N-(3,4-dichlorophenyl)-N-methylpropanamide], the IC50 lay in the range of 1 to 2 µM.

The IC50 is the midpoint of a concentration-inhibition curve.
